Reference: article PMC11407620, “Repurposing auranofin and meclofenamic acid as energy-metabolism inhibitors and anti-cancer drugs” (PLOS ONE, 2024)
Where “and” joins values, the source holds several entries; their conditions need not be identical. Equal entries are not always repeated.

How the values were obtained:
[1] = tested on: ovarian cancer A2780 cells; set-up: method as in PMID 35358852; settings: cited from earlier work
[2] = tested on: HeLa, MDA-MB-231 and MDA-MB-468 cells; assay: Cell migration, wound healing assay; type: cell-based, human; settings: Aur at IC50 (1.7, 0.8, 2 μM); 24 h
Procedure: The wound healing assay was performed for cell migration detection. In petri dishes with full DMEM, cancer cells (5 x 10^6 cells/well) were cultured at 37°C under 95% air and 5% CO2 until 80–90% confluence was attained. Afterwards, cell culture was wounded with a 1 mL pipette tip, washed twice with PBS (155 mM NaCl, 1.5 mM KH2PO4, 2.7 mM NaH2PO4, pH 7.2) and subsequently incubated at 37°C with fresh non-serum DMEM. Cellular migration images were taken in an inverted microscope (Zeiss, Thornwood, NY, USA) after 0 and 24 h incubation time. Using a graduated reticule (Zeiss, Thornwood, NY, USA), cellular migration was assessed from the petri dish’s border to its center distance travelled.
The Aur concentration added was 1.7, 0.8 and 2 μM for HeLa, MDA-MB-231 and MDA-MB-468 cells, respectively. n = 3; *p < 0.05, **p<0.01 vs. Control (Non-treated cells).

[3] = tested on: HeLa cells; assay: OxPhos flux (oligomycin-sensitive respiration) in intact cells; type: cell-based, human; settings: 24 h
Procedure: (§1) For oxidative phosphorylation (OxPhos) flux, cells (2–5 mg protein/mL) were incubated at 37°C in air saturated KR medium plus 5 mM glucose. To distinguish the oxygen consumption associated to OxPhos, the cells were incubated with 5 μM oligomycin (Sigma-Aldrich, MO, USA), a potent, specific, and permeable inhibitor of the mitochondrial ATP synthase. The net OxPhos rate was determined by using a Clark type electrode, as previously described and by using a high-resolution respirometer (Oroboros Instruments, Innsbruck, Austria) at 37°C. The contribution of OxPhos and glycolysis to the cellular ATP supply was determined, respectively, from the net OxPhos rate (oligomycin-sensitive respiration) multiplied by the ATP/O or P»/O2 ratio that corresponds to 2.5 or 5, and from the rate of lactate production, assuming a stoichiometry of 1 mol of ATP produced per 1 mol of lactate produced.

[4] = tested on: MDA-MB-231 cells; assay: as above; type: cell-based, human; settings: 24 h
Procedure: as §1

[5] = set-up: method as in PMID 27821451, PMID 6411921; settings: patients receiving oral Aur; after 24 h -7 d of treatment; cited from earlier work
[6] = set-up: method as in doi:10.1016/j.ccr.2017.02.015, PMID 36770718; settings: cited from earlier work
[7] = tested on: U373 glioblastoma cells; assay: Cell invasiveness, Boyden chamber; type: cell-based, human; settings: 0.6 μM Aur, 24 h
Procedure: (§2) The 96-multiwell Boyden chambers (Merck Millipore, MA, USA) assay was performed for cellular invasiveness detection. Cancer cells (5 × 10^4 cells/well) were re-suspended in free-serum DMEM and placed in the upper Boyden chamber compartment. Free-serum DMEM was also placed in the lower compartment of the chamber. Afterwards, the Boyden chamber was placed at 37°C and 95% air/5% CO2 for 24 h. Invasive cancer cells within the lower chamber compartment were detected by using the calcein-AM (60 nM, 1 h) assay at 37°C. Calcein-fluorescence was measured at λexcitation = 485 nm and λemission = 520 nm in a Nunclon microplate reader (Roskilde, Denmark).
(§3) The Aur concentration added was 1.7, 0.8, 2 and 0.6 μM for HeLa, MDA-MB-231, MDA-MB-468 and U373 cells, respectively. n = 3; *p < 0.05, **p<0.01 vs. Control (Non-treated cells).

[8] = tested on: HeLa, MDA-MB-231 and MDA-MB-468 cells; assay: Cell invasiveness, Boyden chamber; type: cell-based, human; settings: Aur at IC50 (1.7, 0.8, 2 μM); 24 h
Procedure: as §2, §3

[9] = tested on: HeLa cells; assay: Mitophagy assay (MTG/LTR co-localization); type: cell-based, human; settings: Aur 1.7 μM, 24 h
Procedure: The selective removal of damaged/inhibited mitochondria by autophagosomes and lysosomes (i.e., mitophagy) was detected by using an EVOS epifluorescence cell imaging microscope (ThermoFisher, Waltham MA, USA). HeLa cells (5 × 10^4 cells/mL) were cultured in 2 mL DMEM in glass bottom culture dishes and exposed to Aur for 24 h. HeLa cells were incubated with 400 nM Hoechst (Bis-Benzimide H 33342 trihydrochloride), 500 nM MitoTracker-Green FM and 500 nM LysoTracker-Red for 30 min at 37°C for nuclei, mitochondria and lysosome detection, respectively. Afterwards, cells were washed, resuspended with DMEM medium without red phenol and placed in the EVOS microscope for their analysis.
To establish which cell processes were associated to Aur-dependent OxPhos inhibition, mitochondrial digestion (mitophagy) and ROS production were assayed in HeLa cells (Fig 2). Mitophagy is the selective removal of dysfunctional or damaged mitochondria by autophagosomes, which is triggered by mitochondrial inner membrane depolarization and the generation of reactive oxygen species (ROS). Mitophagy was assessed by the number of lysosomes and their co-localization with mitochondria in LTR/MTG-loaded cells by epifluorescence microscopy. […] In addition, dead cells were previously removed for the dye loading procedure, thus discarding unspecific drug effects on mitophagy. […]

| Compound | inhibition of cancer cell total oxygen consumption [1] | inhibition of migration [2] | OxPhos flux ([3]; +Aur 1.7 μM) | OxPhos flux ([4]; +Aur 0.8 μM) | blood Aur levels [5] | stability in aqueous media [6] | inhibition of cell invasiveness [7] | inhibition of invasiveness [8] | mitophagy (MTG mitochondria/LTR lysosomes co-localization) [9] | OxPhos flux ([3]; +MA 6 μM) | OxPhos flux ([4]; +MA 50 μM) |
| --- | --- | --- | --- | --- | --- | --- | --- | --- | --- | --- | --- |
| CC(=O)OC[C@H]1O[C@@H]([S-])[C@H](OC(C)=O)[C@@H](OC(C)=O)[C@@H]1OC(C)=O.CCP(CC)CC.[Au+] [Aur, [1-(thio-κS)-β-D-glucopyranose-2,3,4,6-tetraacetyl] (triethylphosphine)-gold] | around 25% | 90–95% | 2.6 ± 0.5 nmol O2 min^-1 mg protein^-1 | 2.5 ± 0.5 nmol O2 min^-1 mg protein^-1 | 49–310 ng/mL and 0.1–0.6 μM | unstable | 75% | 45–80% | significant enhancement |  |  |
| Cc1ccc(Cl)c(Nc2ccccc2C(=O)O)c1Cl [MA, Meclofenamic acid] |  |  |  |  |  |  |  |  |  | 1.1 ± 0.3 nmol O2 min^-1 mg protein^-1 | 3.1 ± 2 nmol O2 min^-1 mg protein^-1 |
